These are literature values, as cited in paper PMC6627067, “Probing Multi-Target Action of Phlorotannins as New Monoamine Oxidase Inhibitors and Dopaminergic Receptor Modulators with the Potential for Treatment of Neuronal Disorders” (Marine Drugs, 2019).

The target in data set [1] is T1, hMAO-A (Homo sapiens, UniProt P21397).
T1 sequence (P21397 1-527): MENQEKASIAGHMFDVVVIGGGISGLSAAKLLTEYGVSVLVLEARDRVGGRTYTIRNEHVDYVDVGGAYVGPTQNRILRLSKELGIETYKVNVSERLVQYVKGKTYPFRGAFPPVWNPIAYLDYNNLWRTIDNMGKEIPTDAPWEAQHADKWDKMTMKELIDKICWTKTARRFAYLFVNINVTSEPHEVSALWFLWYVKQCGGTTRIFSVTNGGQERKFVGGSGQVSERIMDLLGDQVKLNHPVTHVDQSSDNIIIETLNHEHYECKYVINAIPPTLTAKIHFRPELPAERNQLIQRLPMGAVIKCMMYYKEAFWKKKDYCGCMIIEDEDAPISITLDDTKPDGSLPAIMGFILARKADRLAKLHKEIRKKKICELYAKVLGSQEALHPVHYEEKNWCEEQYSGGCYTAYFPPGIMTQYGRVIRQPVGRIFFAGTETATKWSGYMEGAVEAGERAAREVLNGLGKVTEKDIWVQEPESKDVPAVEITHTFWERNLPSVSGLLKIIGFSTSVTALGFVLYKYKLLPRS
Further details: method as in PMID 28251489. As to conditions: cited from earlier work.

In data set [2] the target is T2, hMAO-B (Homo sapiens, UniProt P27338).
T2 sequence (P27338 1-520): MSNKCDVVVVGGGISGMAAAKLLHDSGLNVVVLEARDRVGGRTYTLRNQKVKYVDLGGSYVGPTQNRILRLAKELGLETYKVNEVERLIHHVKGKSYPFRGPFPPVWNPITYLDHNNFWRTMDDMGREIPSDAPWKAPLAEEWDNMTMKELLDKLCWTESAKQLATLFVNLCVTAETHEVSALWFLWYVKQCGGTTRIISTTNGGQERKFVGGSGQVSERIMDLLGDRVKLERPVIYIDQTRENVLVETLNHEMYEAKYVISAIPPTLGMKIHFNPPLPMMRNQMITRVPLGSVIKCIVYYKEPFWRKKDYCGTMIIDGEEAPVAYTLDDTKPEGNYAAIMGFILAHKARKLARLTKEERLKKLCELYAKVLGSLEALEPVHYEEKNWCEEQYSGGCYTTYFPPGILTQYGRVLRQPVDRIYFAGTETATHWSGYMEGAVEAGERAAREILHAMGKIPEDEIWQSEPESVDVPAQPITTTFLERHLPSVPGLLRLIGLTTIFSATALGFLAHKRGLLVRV
Details: method as in PMID 28251489. As to conditions: cited from earlier work.

Data set [3] concerns the target T3, hM5 (CHRM5) (Homo sapiens, UniProt P08912).
T3 sequence (P08912 1-532): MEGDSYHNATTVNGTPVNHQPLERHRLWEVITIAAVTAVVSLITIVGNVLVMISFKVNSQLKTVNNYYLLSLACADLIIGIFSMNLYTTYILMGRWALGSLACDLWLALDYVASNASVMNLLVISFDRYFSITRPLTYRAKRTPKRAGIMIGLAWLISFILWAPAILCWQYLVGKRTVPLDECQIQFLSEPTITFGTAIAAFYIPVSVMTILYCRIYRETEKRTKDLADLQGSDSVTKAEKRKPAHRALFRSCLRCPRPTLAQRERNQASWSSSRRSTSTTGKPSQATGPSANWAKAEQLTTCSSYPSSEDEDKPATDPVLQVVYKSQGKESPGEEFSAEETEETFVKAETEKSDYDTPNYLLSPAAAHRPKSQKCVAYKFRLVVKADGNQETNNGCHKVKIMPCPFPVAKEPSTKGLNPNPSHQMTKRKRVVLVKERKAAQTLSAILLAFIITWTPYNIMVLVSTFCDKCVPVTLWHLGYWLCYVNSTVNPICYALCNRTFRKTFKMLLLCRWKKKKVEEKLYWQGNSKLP
The settings on record: previous GPCR cell-based study; cited from earlier work.

The target in data set [4] is hNK1 (TACR1) (Homo sapiens, UniProt P25103). The settings on record: previous GPCR cell-based study; cited from earlier work.
For data set [5], the target named is T4, h5-HT1A (HTR1A) (Homo sapiens, UniProt P08908).
T4 sequence (P08908 1-422): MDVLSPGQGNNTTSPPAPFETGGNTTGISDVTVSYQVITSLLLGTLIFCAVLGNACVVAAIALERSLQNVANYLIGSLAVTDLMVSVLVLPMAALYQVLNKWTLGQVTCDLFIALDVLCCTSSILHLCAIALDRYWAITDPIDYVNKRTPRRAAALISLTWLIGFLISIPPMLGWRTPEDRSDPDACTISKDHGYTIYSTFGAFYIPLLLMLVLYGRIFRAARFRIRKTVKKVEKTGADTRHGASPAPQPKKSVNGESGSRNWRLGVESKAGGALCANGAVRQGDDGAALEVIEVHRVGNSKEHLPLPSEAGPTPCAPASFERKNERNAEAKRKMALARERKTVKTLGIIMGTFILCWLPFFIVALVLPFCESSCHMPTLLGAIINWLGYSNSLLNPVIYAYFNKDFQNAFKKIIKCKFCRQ
As to conditions: previous GPCR cell-based study; cited from earlier work.

The target in data set [6] is hV1A (AVPR1A) (Homo sapiens, UniProt P37288). The settings on record: previous GPCR cell-based study; cited from earlier work.
In data set [7] the target is hD1 (DRD1) (Homo sapiens, UniProt P21728). Details: host or cells: CHO cells. As to conditions: previous GPCR cell-based study; cited from earlier work.
Data set [8] concerns the target hD3 (DRD3) (Homo sapiens, UniProt P35462). Further details: host or cells: CHO cells. As to conditions: previous GPCR cell-based study; cited from earlier work.
In data set [9] the target is T5, hD4 (DRD4) (Homo sapiens, UniProt P21917).
T5 sequence (P21917 1-419): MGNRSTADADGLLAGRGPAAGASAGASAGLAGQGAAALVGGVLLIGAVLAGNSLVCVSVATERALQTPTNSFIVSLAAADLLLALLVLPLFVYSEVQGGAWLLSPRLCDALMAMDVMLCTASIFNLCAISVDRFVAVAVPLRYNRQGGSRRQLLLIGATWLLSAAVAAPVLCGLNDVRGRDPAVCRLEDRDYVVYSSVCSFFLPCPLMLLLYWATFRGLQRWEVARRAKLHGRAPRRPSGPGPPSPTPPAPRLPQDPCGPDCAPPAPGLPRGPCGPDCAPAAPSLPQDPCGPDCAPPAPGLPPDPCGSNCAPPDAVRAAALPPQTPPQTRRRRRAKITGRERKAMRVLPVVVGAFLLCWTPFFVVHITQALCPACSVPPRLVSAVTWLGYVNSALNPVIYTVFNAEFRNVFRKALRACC
Details: host or cells: CHO cells. As to conditions: previous GPCR cell-based study; cited from earlier work.

Chain of hNK1 (TACR1) (P25103 whole entry): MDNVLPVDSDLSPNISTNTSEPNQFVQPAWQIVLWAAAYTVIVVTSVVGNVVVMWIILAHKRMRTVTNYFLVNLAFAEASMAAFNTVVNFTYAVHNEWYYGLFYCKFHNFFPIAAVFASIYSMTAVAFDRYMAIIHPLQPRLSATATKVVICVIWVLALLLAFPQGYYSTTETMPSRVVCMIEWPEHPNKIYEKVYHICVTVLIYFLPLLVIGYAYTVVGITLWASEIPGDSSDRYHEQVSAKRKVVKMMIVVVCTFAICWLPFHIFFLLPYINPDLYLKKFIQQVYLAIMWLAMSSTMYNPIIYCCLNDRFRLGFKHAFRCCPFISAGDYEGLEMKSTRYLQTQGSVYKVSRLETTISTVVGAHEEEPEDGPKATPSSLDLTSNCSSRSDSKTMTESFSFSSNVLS
Chain of hD3 (DRD3) (P35462 whole entry): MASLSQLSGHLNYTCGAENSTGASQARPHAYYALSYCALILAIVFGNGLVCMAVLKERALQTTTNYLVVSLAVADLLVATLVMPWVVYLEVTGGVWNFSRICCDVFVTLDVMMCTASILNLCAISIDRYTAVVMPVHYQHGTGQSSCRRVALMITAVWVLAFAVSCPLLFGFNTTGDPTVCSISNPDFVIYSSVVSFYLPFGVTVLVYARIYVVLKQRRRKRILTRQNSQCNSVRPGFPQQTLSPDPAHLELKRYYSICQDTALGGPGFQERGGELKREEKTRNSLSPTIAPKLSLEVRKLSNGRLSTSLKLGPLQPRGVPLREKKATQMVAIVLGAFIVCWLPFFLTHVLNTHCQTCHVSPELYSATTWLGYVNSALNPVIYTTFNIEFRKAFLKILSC
Chain of hV1A (AVPR1A) (P37288 whole entry): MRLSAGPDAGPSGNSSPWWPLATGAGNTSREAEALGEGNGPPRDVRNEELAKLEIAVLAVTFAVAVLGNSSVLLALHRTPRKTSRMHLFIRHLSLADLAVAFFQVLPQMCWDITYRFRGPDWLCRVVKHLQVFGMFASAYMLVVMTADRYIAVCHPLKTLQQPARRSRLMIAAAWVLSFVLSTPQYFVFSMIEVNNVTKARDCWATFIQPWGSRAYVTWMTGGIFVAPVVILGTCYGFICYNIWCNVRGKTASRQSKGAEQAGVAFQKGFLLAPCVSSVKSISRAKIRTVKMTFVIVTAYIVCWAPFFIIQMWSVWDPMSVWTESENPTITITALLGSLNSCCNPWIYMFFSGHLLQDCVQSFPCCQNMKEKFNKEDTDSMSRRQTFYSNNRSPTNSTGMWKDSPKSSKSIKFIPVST
Chain of hD1 (DRD1) (P21728 whole entry): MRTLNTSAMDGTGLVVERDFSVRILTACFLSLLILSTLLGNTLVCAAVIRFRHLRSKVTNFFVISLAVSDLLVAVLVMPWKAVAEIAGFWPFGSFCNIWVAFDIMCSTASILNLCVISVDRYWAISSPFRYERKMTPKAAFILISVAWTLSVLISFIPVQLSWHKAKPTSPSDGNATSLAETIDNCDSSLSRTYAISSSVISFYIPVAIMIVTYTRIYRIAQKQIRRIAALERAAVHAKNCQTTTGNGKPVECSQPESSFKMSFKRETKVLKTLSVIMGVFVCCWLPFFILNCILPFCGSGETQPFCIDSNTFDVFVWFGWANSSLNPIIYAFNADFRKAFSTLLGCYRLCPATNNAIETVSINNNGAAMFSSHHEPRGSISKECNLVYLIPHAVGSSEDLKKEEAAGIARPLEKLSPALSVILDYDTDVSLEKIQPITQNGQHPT

A word on the Ki: it is the dissociation constant of the complex between target and ligand, obtained from inhibition or displacement. As a reminder, the IC50 is the midpoint of a concentration-inhibition curve. With `Oc1cc(O)cc(Oc2c(O)cc(O)c3c2Oc2c(O)cc(O)cc2O3)c1` [Eckol, eckol], in [1] (NC = noncompetitive, Mixed = mixed type), the “Inhibition type hMAO-A” value is “Mixed”. Also, the inhibition constant (Ki) was 20.3 µM in data set [1] and 163 µM in [2]. Besides, the “SI (selective index)” value in [1] (ratio of hMAO-A IC50/hMAO-B IC50) is 0.09. Besides, the IC50 in data set [1] (recombinant hMAO-A, obtained from the literature) is 7.2 ± 0.71 µM; in data set [2] (recombinant hMAO-B, obtained from the literature), 83.4 ± 1.48 µM. Also, the “Effect on M5 receptor” value in data set [3] is reported as “null effects”. The “Effect on NK1 receptor” value in data set [4] is “null effects”. Besides, the “Effect on 5HT1A receptor” value in data set [5] is given as “null effects”. Besides, the “Effect on V1A receptor” value in data set [6] was “null effects”. For the same compound, the “Effect on D1R” value in data set [7] was “null effects”. The “Effect on hD3R” value in data set [8] is reported as “agonist”. Besides, in [9], the “Effect on hD4R” value was “agonist”.
